Laboratory results taken from publication PMC7385433 (International Journal of Antimicrobial Agents, 2020).

Tests used:
[1] = tested on: Burkholderia pseudomallei K96243; format: in vivo, BALB/c mice; conditions: for survival at 30 days post-infection: n = 5
[2] = tested on: B. pseudomallei; assay: microbe, parasite or virus in culture; format: cell-based; conditions: Burkholderia pseudomallei, read-out: minimum inhibitory concentration (MIC)
[3] = tested on: Burkholderia pseudomallei K96243; set-up: species or system Galleria mellonella; conditions: for survival of Galleria larvae / larvae whose haemolymph was sterile of any bacteria: in vivo
[4] = in vivo
[5] = in vivo; conditions: female, BALB/c, mouse, ip, 15 mg/kg
[6] = tested on: B. pseudomallei; conditions: ip; cited from earlier work
[7] = tested on: gyrase and topoisomerase IV; conditions: cited from earlier work
[8] = not told; cited from earlier work

## CC(C)(O/N=C(\C(=O)N[C@@H]1C(=O)N2C(C(=O)[O-])=C(C[n+]3ccccc3)CS[C@H]12)c1csc(N)n1)C(=O)O [ceftazidime]
[1]; mouse, in vivo
  B. pseudomallei present in lungs of surviving mice: two of three
  bacteria in spleen of surviving mice: > 1 × 10^7 CFU
[1]
  survival at 30 days post-infection: 60%

## CO[C@@H]1[C@@H](OC(N)=O)[C@@H](O)[C@H](Oc2ccc3c(O)c(NC(=O)c4ccc(O)c(CC=C(C)C)c4)c(=O)oc3c2C)OC1(C)C [novobiocin]
[2]
  MIC: < 10 µg/mL
[3]
  bacterial load in haemolymph (killing activity in vivo): no significant killing activity
  survival of Galleria larvae: no larvae treated with novobiocin survived longer than 24 h post-infection
[4]
  effect of DL-tryptophan on drug accumulation in tissue: No significant effect on drug accumulation in adipose or haemolymphatic tissue
[5]
  AUC: 33.2 µM·h
  AUC(0-inf): 33.2 µM·h
  AUC(0-t): 33.2 µM·h
  Cmax: 10.7 µM
  Tmax: 1 h
[5]; t1/2
  half-life: 2.8 h

## coumermycin
[3]
  bacterial load in haemolymph (killing activity in vivo): significantly reduced the bacterial load
  larvae whose haemolymph was sterile of any bacteria: 60%
  survival of Galleria larvae: all Galleria larvae survived
[1]; mouse, in vivo
  units with complete organ sterility: 40%
[1]
  survival at 30 days post-infection: 40%
[6]
  activity against multiple strains of B. pseudomallei in vivo: significant activity

## CO[C@@H]1[C@@H](OC(=O)c2ccc(C)[nH]2)[C@@H](O)[C@H](Oc2ccc3c(O)c(NC(=O)c4ccc(O)c(CC=C(C)C)c4)c(=O)oc3c2Cl)OC1(C)C [clorobiocin]
[3]
  bacterial load in haemolymph (killing activity in vivo): significantly reduced the bacterial load
  larvae whose haemolymph was sterile of any bacteria: 100%
  survival of Galleria larvae: all Galleria larvae survived
[7]
  potency as inhibitor of gyrase and topoisomerase IV relative to novobiocin: more potent inhibitor
[8]
  membrane permeability compared with novobiocin: improved membrane permeability
